“And” between values parts separate entries of the source, which are not always exact repeats. Equal values may be shown once. Peptide text beside a SMILES is read from it.
Key:
[1] = Phase I human trial: plasma pharmacokinetics of EA-230; type: in vivo; conditions: for tmax: 15-min infusion; for AUC(0-t) / Cmax: plasma, iv
Description: (§1) Part 1: A Phase I, double blind, randomized, single dose, placebo controlled, dose escalation study with 4 groups of 8 subjects (Groups 1-4). In each group 6 subjects were randomized to active medication and 2 to placebo. The first group received a single intravenous injection of EA-230 or placebo. After all subjects had completed Day 7 assessments, the safety review board decided on continuation of the study until the maximum tolerated dose had been assessed or the highest dose. Placebo subjects were pooled for analysis.
(§2) Part 2: A Phase I, double blind, randomized, single dose, placebo controlled study. The second part consisted of 1 group of 12 subjects (Group 5). All twelve subjects received LPS (4 ng/kg E. coli EC6) as a 2-minute injection, 30 minutes prior to EA-230 administration. […] Cytokines profiles were assessed to establish the effect of EA-230 on inflammatory parameters.
Plasma concentration time profiles of EA-230 were analyzed. Pharmacokinetic parameters AUC, clearance, volume of distribution and elimination half-life were obtained for EA-230.
PK samples were collected pre-dose and from 5 minutes to 4 hours after the start of study drug administration.

[2] = test system: healthy male subjects; assay: Phase I human trial: safety; type: in vivo
Description: as §1, §2
Adverse events (AEs), vital signs, ECG, hematology, clinical chemistry, and urinalysis.
Incidence of treatment emergent AEs and treatment emergent treatment related AEs were summarized. Hematological, biochemical, urinalysis parameters, vital signs and their changes from baseline were summarized over time using n, mean, standard deviation, median and range.

[3] = test system: mice, 25 minutes renal ischemia/reperfusion; assay: Mouse renal ischemia reperfusion test (mortality, BUN/serum urea); type: in vivo; parameters: BUN, mean / Urea level: unit not given here
Procedure: SEQ ID NO:2 was tested and compared with PBS (control) in a double blind animal study for the peptide's relative ability to aid recovery in a mouse renal ischemia reperfusion test. In this test, the mice were anesthetized, and one kidney from each mouse was removed. The other kidney was tied off for 25 minutes, and the serum urea levels were allowed to increase. Both before and after tying off, the peptide was administered to thirty (30) different mice (5 mg oligopeptide/kg body mass intravenously), after which, the mortality of the mice was determined for each oligopeptide as well as was the BUN concentration at two hours, 24 hours and 72 hours.
Under inhalation anesthesia, the left kidney with its artery and vein was isolated and occluded for 25 minutes using a microvascular clamp. During surgery animals were placed on a heating path to maintain body temperature at 37° C. Five minutes before placing the clamp, and 5 minutes before releasing the clamp, 5 mg/kg of peptide, dissolved in 0.1 mL of sterile saline, was administered intravenously. After reperfusion of the left kidney the right kidney was removed. Kidney function was assessed by measuring blood urea nitrogen before clamping, and at 2, 24, and 72 hours after reperfusion.
To determine dose-response relationships SEQ ID NO:2, was tested in a dose-response manner in the mice test as described above. Peptides were tested at 0.3, 1, 3, 10 and 30 mg/kg dosages given as described in Example I. Serum urea levels are presented in Table 3.

[4] = test system: BALB/c mice injected i.p. with LPS (E. coli 026:B6); assay: LPS-induced septic shock (endotoxin model) in BALB/c mice; type: in vivo, mouse; parameters: key to Sickness score of individual mouse: 0: No abnormalities.; 1: Percolated fur, but no detectable behavior differences compared to normal mice.; 2: Percolated fur, huddle reflex, responds to stimuli (such as tap on cage), just as active during handling as healthy mouse.; 3: Slower response to tap on cage, passive or docile when handled, but still curious when alone in a new setting.; 4: Lack of curiosity, little or no response to stimuli, quite immobile.; 5: Labored breathing, inability or slow to self-right after being rolled onto back (moribund, sacrificed).; Dead; conditions: for Survival %: group of 6, 48 hrs
Procedure: Mice used in sepsis or septic shock experiments: Female BALB/c mice of 8-12 weeks of age were used for all experiments. The animals were bred in our facility under specific pathogen-free conditions according to the protocols described in the Report of European Laboratory Animal Science Associations (FELASA) Working group on Animal Health (Laboratory Animals 28: 1-24, 1994).
Injection protocols: For the endotoxin model, BALB/c mice were injected i.p. with 150-300 μg LPS (E. coli 026:B6; Difco Lab., Detroit, Mich., USA). Control groups were treated with PBS i.p. only. To test the effect of peptides, they were dissolved in PBS and injected i.p. at predetermined points in time after LPS treatment.
Mice were scored for sickness severity using the following measurement scheme: • 0 No abnormalities. • 1 Percolated fur, but no detectable behavior differences compared to normal mice. • 2 Percolated fur, huddle reflex, responds to stimuli (such as tap on cage), just as active during handling as healthy mouse. • 3 Slower response to tap on cage, passive or docile when handled, but still curious when alone in a new setting. • 4 Lack of curiosity, little or no response to stimuli, quite immobile. • 5 Labored breathing, inability or slow to self-right after being rolled onto back (moribund, sacrificed). • D Dead […]
A comparative trial was set up to compare peptide MTR and SEQ ID NO:2. The comparative trial comprised 6 groups of 6 animals; two groups (1A and 1B) receiving placebo (PBS), one group (2) peptide MTR (source Pepscan, Lelystad, NL), one group (3) receiving peptide MTR (source Ansynth), one group (4) receiving peptide SEQ ID NO:2 (source Pepscan) and one group peptide SEQ ID NO:2 (source Ansynth). Peptide/placebo in these groups was administered 2 hours after LPS. LPS (source) was used at 10-11 mg/kg. Sickness scores were done at 0, 2, 22 26 42 and 48 hours after LPS injection.

[5] = 1 mg/kg, 1 mg/kg i.v. 2-min infusion, N = 6, arithmetic mean ± SD
[6] = 3 mg/kg, 3 mg/kg i.v. 2-min infusion, N = 6, arithmetic mean ± SD
[7] = 10 mg/kg, 10 mg/kg i.v. 15-min infusion, N = 6, arithmetic mean ± SD
[8] = 10 mg/kg, Part 2, LPS + 10 mg/kg i.v. 15-min infusion, arithmetic mean ± SD
[9] = 30 mg/kg, 30 mg/kg i.v. 15-min infusion, N = 6, arithmetic mean ± SD

## CC(C)[C@H](NC(=O)CNC(=O)[C@H](CCC(N)=O)NC(=O)[C@H](C)N)C(=O)O [EA-230, H-Ala-Gln-Gly-Val-OH.xAcOH] (H-AQGV-OH)
[1]; 10 mg/kg EA-230 alone
  tmax: 5 minutes before the end of infusion
[1]; 1-mg/kg dose
  time by which average plasma concentrations were below LOQ: ≤ 15 min
[1]; 30-mg/kg dose, after dosing
  time by which average plasma concentrations were below LOQ: ≤ 120 min
[1]; most subjects, 10 mg/kg EA-230 with LPS challenge
  tmax: 10 minutes before the end of infusion
[1]; [5]
  AUC(0-t): 2.5 ng·h/mL
  Cmax: 32.5 ng/mL
[1]; [6]
  AUC(0-t): 11.8 ng·h/mL
  Cmax: 132 ± 76.4 ng/mL
[1]; [7]
  AUC(0-t): 217 ng·h/mL
  Cmax: 1600 ± 1130 ng/mL
[1]; [8]
  AUC(0-t): 303 ng·h/mL
  Cmax: 1710 ± 1330 ng/mL
[1]; [9]
  AUC(0-t): 595 ng·h/mL
  Cmax: 3220 ± 1080 ng/mL
[1]; single i.v. dose 1-30 mg/kg
  elimination from plasma: rapidly eliminated
[2]
  AE occurrence, placebo vs active subjects: No difference in AE occurrence
[2]; 1 mg/kg to 30 mg/kg i.v.
  safety and tolerability of a single dose: safe and well tolerated
[2]; escalating dose part 1-30 mg/kg
  number or intensity of AEs with the dose: No increase in the number or intensity of AEs
[2]; whole study
  QTc: No abnormal QTc
  serious adverse events (SAE): No SAE occurred

## AQG
[3]; 0.3 mg/kg, 24 h
  Urea level: 38.4
[3]; 0.3 mg/kg, 72 h
  Urea level: 30.4
[3]; 1.0 mg/kg, 24 h
  Urea level: 48.4
[3]; 1.0 mg/kg, 72 h
  Urea level: 38.4
[3]; 3.0 mg/kg, 24 h
  Urea level: 39.3
[3]; 3.0 mg/kg, 72 h
  Urea level: 40.3
[3]; 10.0 mg/kg, 24 h
  Urea level: 46.8
[3]; 10.0 mg/kg, 72 h
  Urea level: 25.8
[3]; 30.0 mg/kg, 24 h
  Urea level: 52.8
[3]; 30.0 mg/kg, 72 h
  Urea level: 58.9

## MTR
[4]; source Ansynth (#Ansynth 12/46) 2 hours after LPS 10-11 mg/kg, 0 hrs (before peptide)
  Sickness score of individual mouse: 0
[4]; source Ansynth (#Ansynth 12/46) 2 hours after LPS 10-11 mg/kg, 2 hrs (at peptide administration)
  Sickness score of individual mouse: 2
[4]; source Ansynth (#Ansynth 12/46) 2 hours after LPS 10-11 mg/kg, 22 hrs
  Sickness score of individual mouse: 2 (4×) and 4 and 3
[4]; source Ansynth (#Ansynth 12/46) 2 hours after LPS 10-11 mg/kg, 26 hrs
  Sickness score of individual mouse: 1 and 2 (2×) and 5 and 4 and 3
[4]; source Ansynth (#Ansynth 12/46) 2 hours after LPS 10-11 mg/kg, 42 hrs
  Sickness score of individual mouse: 1 and 2 (2×) and dead and 4 and 5
[4]; source Ansynth (#Ansynth 12/46) 2 hours after LPS 10-11 mg/kg, 48 hrs
  Sickness score of individual mouse: 1 (2×) and dead (2×) and 2
[4]; source Ansynth (#Ansynth 12/46) 2 hours after LPS 10-11 mg/kg
  Survival %: 50%
[4]; source Pepscan (#970/#971) 5 mg/kg 2 hours after LPS 10-11 mg/kg, 0 hrs (before peptide)
  Sickness score of individual mouse: 0
[4]; source Pepscan (#970/#971) 5 mg/kg 2 hours after LPS 10-11 mg/kg, 2 hrs (at peptide administration)
  Sickness score of individual mouse: 2
[4]; source Pepscan (#970/#971) 5 mg/kg 2 hours after LPS 10-11 mg/kg, 22 hrs
  Sickness score of individual mouse: dead and 3 and 2 (3×) and 4
[4]; source Pepscan (#970/#971) 5 mg/kg 2 hours after LPS 10-11 mg/kg, 26 hrs
  Sickness score of individual mouse: 3 and 2 (3×) and 5
[4]; source Pepscan (#970/#971) 5 mg/kg 2 hours after LPS 10-11 mg/kg, 42 hrs
  Sickness score of individual mouse: 5 and 2 (2×) and 4 and dead
[4]; source Pepscan (#970/#971) 5 mg/kg 2 hours after LPS 10-11 mg/kg, 48 hrs
  Sickness score of individual mouse: dead (2×) and 2 (2×)
[4]; source Pepscan (#970/#971) 5 mg/kg 2 hours after LPS 10-11 mg/kg
  Survival %: 33%
